Drawing on US10681909B2, “Herbicidal triazoles” (FMC Corporation, priority 2014, dated 2020), this text covers pest or weed control, Corn plant response rating (crop injury, 0 = no effect, 100 = complete kill) and plant injury for six molecules.

The subject of one test is barnyardgrass. Description: Test A preemergence. The test is classed as in vivo, Echinochloa crus-galli. As to conditions: Echinochloa crus-galli, pre-emergence, 240 h, 0 to 100 scale (0 no effect, 100 complete control), read-out: Plant response rating, Barnyardgrass; for pest or weed control at 125 g/ha: 125 g ai/ha; for pest or weed control at 500 g/ha: 500 g ai/ha, approx. 10 d. In outline:
(§1)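 Herbicidal response was scored on plants treated pre- or postemergence with surfactant-containing, non-phytotoxic solvent formulations. Preemergence meant a directed spray onto soil (loam–sand) holding sown seed; postemergence plants were at one to two leaves.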

In another test the test system is foxtail, giant. Description: Test A preemergence. The test is classed as in vivo, Setaria faberii. As to conditions: Setaria faberi, pre-emergence, 240 h, 0 to 100 scale (0 no effect, 100 complete control), read-out: Plant response rating, Foxtail, Giant; for pest or weed control at 125 g/ha: 125 g ai/ha; for pest or weed control at 500 g/ha: 500 g ai/ha, approx. 10 d. A digest of the protocol:
as §1

Another test concerns pigweed. Nature of the test: Test A preemergence. The test is classed as in vivo, Amaranthus retroflexus. The conditions noted are these: Amaranthus retroflexus, pre-emergence, 240 h, 0 to 100 scale (0 no effect, 100 complete control), read-out: Plant response rating, Pigweed; for pest or weed control at 125 g/ha: 125 g ai/ha; for pest or weed control at 500 g/ha: 500 g ai/ha, approx. 10 d. In outline: as §1

In another test the test system is corn. Description: Test A preemergence. In kind it is in vivo, Zea mays. The conditions noted are these: Zea mays, pre-emergence, 240 h, 0 to 100 scale (0 no effect, 100 complete control); for Corn plant response rating (crop injury, 0 = no effect, 100 = complete kill) at 125 g/ha: 125 g ai/ha; for Corn plant response rating (crop injury, 0 = no effect, 100 = complete kill) at 500 g/ha: 500 g ai/ha, approx. 10 d. A digest of the protocol: as §1

The test system of the next test is wheat. Nature of the test: Test A postemergence. The test is classed as in vivo, Triticum aestivum. As to conditions: Triticum aestivum, post-emergence, 240 h, 0 to 100 scale (0 no effect, 100 complete control), approx. 10 d, read-out: Plant response rating, Wheat; for plant injury at 125 g/ha: 125 g ai/ha; for plant injury at 500 g/ha: 500 g ai/ha. In outline: as §1

As for `Cn1nc(-c2ccc(F)cc2)nc1C(O)c1ccnc(C(F)(F)F)c1` (stereo not drawn) [Compound 14, α-[3-(4-fluorophenyl)-1-methyl-1H-1,2,4-triazol-5-yl]-2-(trifluoromethyl)-4-pyridinemethanol], in the test with barnyardgrass, the pest or weed control at 125 g/ha turned out to be 0% and the pest or weed control at 500 g/ha is 10%. Further, in the test with foxtail, giant, the pest or weed control at 125 g/ha is 30% and the pest or weed control at 500 g/ha came to 90%. For the same molecule, in the test on pigweed, the pest or weed control at 125 g/ha was 90% and the pest or weed control at 500 g/ha amounted to 100%. In the test on corn, this molecule gave a Corn plant response rating (crop injury, 0 = no effect, 100 = complete kill) at 125 g/ha of 0% and a Corn plant response rating (crop injury, 0 = no effect, 100 = complete kill) at 500 g/ha of 0%. In the test on wheat, the plant injury at 125 g/ha was determined as 10% and the plant injury at 500 g/ha stood at 30%.

For `CCn1nc(-c2ccc(F)cc2)nc1C(O)c1ccnc(C(F)(F)F)c1` (stereo not drawn) [Compound 15, α-[1-Ethyl-3-(4-fluorophenyl)-1H-1,2,4-triazol-5-yl]-2-(trifluoromethyl)-4-pyridinemethanol], in the test with barnyardgrass, the pest or weed control at 125 g/ha was 0% and the pest or weed control at 500 g/ha was 0%. Moreover, in the test with foxtail, giant, the pest or weed control at 125 g/ha amounted to 0% and the pest or weed control at 500 g/ha was 20%. Further, in the test on pigweed, the pest or weed control at 125 g/ha came to 0% and the pest or weed control at 500 g/ha is 0%. In the test on corn, this molecule showed a Corn plant response rating (crop injury, 0 = no effect, 100 = complete kill) at 125 g/ha of 0% and a Corn plant response rating (crop injury, 0 = no effect, 100 = complete kill) at 500 g/ha of 0%. Further, in the test on wheat, the plant injury at 125 g/ha came out at 0% and the plant injury at 500 g/ha is 0%.

In the case of `CCCn1nc(-c2ccc(F)cc2)nc1Cc1ccnc(C(F)(F)F)c1` [Compound 17, 4-[[3-(4-fluorophenyl)-1-propyl-1H-1,2,4-triazol-5-yl]methyl]-2-(trifluoromethyl)pyridine], in the test on barnyardgrass, the pest or weed control at 125 g/ha came out at 50% and the pest or weed control at 500 g/ha turned out to be 100%. Moreover, in the test with foxtail, giant, the pest or weed control at 125 g/ha turned out to be 100% and the pest or weed control at 500 g/ha stood at 100%. Moreover, in the test on pigweed, the pest or weed control at 125 g/ha amounted to 100% and the pest or weed control at 500 g/ha was found to be 100%. Also, in the test on corn, the Corn plant response rating (crop injury, 0 = no effect, 100 = complete kill) at 125 g/ha was 30% and the Corn plant response rating (crop injury, 0 = no effect, 100 = complete kill) at 500 g/ha is 40%. For the same molecule, in the test on wheat, the plant injury at 125 g/ha stood at 60% and the plant injury at 500 g/ha was found to be 80%.

For `CCn1nc(-c2ccc(F)cc2)nc1C(=O)c1ccnc(C(F)(F)F)c1` [Compound 19, [1-ethyl-3-(4-fluorophenyl)-1H-1,2,4-triazol-5-yl][2-(trifluoromethyl)-4-pyridinyl]methanone], in the test with barnyardgrass, the pest or weed control at 125 g/ha was 0% and the pest or weed control at 500 g/ha is 0%. Besides, in the test on foxtail, giant, the pest or weed control at 125 g/ha is 0% and the pest or weed control at 500 g/ha was 50%. In addition, in the test with pigweed, the pest or weed control at 125 g/ha is 0% and the pest or weed control at 500 g/ha turned out to be 0%. In the test with corn, this molecule returned a Corn plant response rating (crop injury, 0 = no effect, 100 = complete kill) at 125 g/ha of 0% and a Corn plant response rating (crop injury, 0 = no effect, 100 = complete kill) at 500 g/ha of 0%. Further, in the test on wheat, the plant injury at 125 g/ha was determined as 0% and the plant injury at 500 g/ha is 0%.

In the case of `Cn1nc(-c2ccc(F)cc2)nc1Oc1cccc(C(F)(F)F)c1` [Compound 5, 3-(4-fluorophenyl)-1-methyl-5-[3-(trifluoromethyl)phenoxy]-1H-1,2,4-triazole], in the test on barnyardgrass, the pest or weed control at 125 g/ha is 0% and the pest or weed control at 500 g/ha worked out at 20%. Also, in the test on foxtail, giant, the pest or weed control at 125 g/ha was determined as 60% and the pest or weed control at 500 g/ha was 90%. Further, in the test with pigweed, the pest or weed control at 125 g/ha is 40% and the pest or weed control at 500 g/ha was determined as 50%. In the test with corn, this molecule returned a Corn plant response rating (crop injury, 0 = no effect, 100 = complete kill) at 125 g/ha of 0% and a Corn plant response rating (crop injury, 0 = no effect, 100 = complete kill) at 500 g/ha of 0%. Also, in the test with wheat, the plant injury at 125 g/ha was 0% and the plant injury at 500 g/ha was 10%.

Take `CS(=O)(=O)c1nc(-c2ccc(F)cc2)nn1Cc1ccnc(C(F)(F)F)c1` [Compound 29, 4-[[3-(4-fluorophenyl)-5-(methylsulfonyl)-1H-1,2,4-triazole-1-yl]methyl]-2-(trifluoromethyl)pyridine]: in the test on barnyardgrass, the pest or weed control at 125 g/ha is 0% and the pest or weed control at 500 g/ha is 0%. Further, in the test on foxtail, giant, the pest or weed control at 125 g/ha worked out at 0% and the pest or weed control at 500 g/ha is 0%. In addition, in the test on pigweed, the pest or weed control at 125 g/ha stood at 0% and the pest or weed control at 500 g/ha worked out at 0%. In the test on corn, this molecule gave a Corn plant response rating (crop injury, 0 = no effect, 100 = complete kill) at 125 g/ha of 0% and a Corn plant response rating (crop injury, 0 = no effect, 100 = complete kill) at 500 g/ha of 0%. Also, in the test on wheat, the plant injury at 125 g/ha worked out at 0% and the plant injury at 500 g/ha came to 0%.
